Measured values taken from patent US20250368635A1, “HETEROARYL DERIVATIVE COMPOUND, AND USES THEREOF” (VORONOI, INC., priority 2022, published 2025).

Key:
[1] = system: Ba/F3 cells expressing EGFR L858R/C797S (EGFR LC); assay: Inhibition of proliferation of Ba/F3 cells expressing EGFR L858R/C797S (CellTiter-Glo, 72 h); assay type: cell-based; conditions: Mus musculus, BaF3, 72 hours treatment
Description: (§1) The following experiment was performed to evaluate the inhibitory activity of the compounds according to the present invention on the proliferation of Ba/F3 cells expressing EGFR Del19/C797S (EGFR DC) and EGFR L858R/C797S (EGFR LC) mutations.
(§2) Ba/F3 cells were cultured using medium (RPMI-1640) containing 10% fetal bovine serum (FBS) and 5 ng/ml IL-3 (R&D Systems). The transduced Ba/F3 cells were cultured by adding 1 μg/ml puromycin (Invitrogen) to the same medium.
(§3) 24 hours prior to treatment with compounds, 3,000 to 5,000 cells were seeded on a well plate (white clear bottom 96 well plate, Corning). The compounds were diluted in dimethyl sulfoxide (3-fold dilution, total of 12 concentrations) and injected at 1 μl each so that the final concentration was 0.2 nM to 5 μM. After 72 hours post treatment with compounds, living cells were stored at room temperature for 10 minutes using CellTiter-Glo luminescent cell-viability reagent (Promega), and the luminescence intensity thereof was measured using a reader (Synergy Neo, Biotek). Each test was repeated three times. The result values were calculated as a cell growth rate (%) compared to the control group. A graph was created using the GraphPad Prism version 8.3.0 program, and GI50 values were calculated.

[2] = system: Ba/F3 cells expressing EGFR Del19/C797S (EGFR DC); assay: Inhibition of proliferation of Ba/F3 cells expressing EGFR Del19/C797S (CellTiter-Glo, 72 h); assay type: cell-based; conditions: Mus musculus, BaF3, 72 hours treatment
Description: as §1, §2, §3

GI50 [1] | GI50 [2] | SMILES
– | 0.1 to 1 µM | COc1cc(N2CCC3(CC2)CN(C)CCO3)c(-c2cnn(C)c2)cc1Nc1cc(N2OCC[C@@H]2c2cccc(F)c2F)ncn1 [Example 83, (R)-6-(3-(2,3-difluorophenyl)isoxazolidin-2-yl)-N-(2-methoxy-5-(1-methyl-1H-pyrazol-4-yl)-4-(4-methyl-1-oxa-4,9-diazaspiro[5.5]undecan-9-yl)phenyl)pyrimidin-4-amine]
– | < 0.1 µM | COc1cc(N2CCN(C)CC2)c(-c2cnn(C3CC3)c2)cc1Nc1cc(N2OCC[C@@H]2c2cccc(F)c2F)ncn1 [Example 99, (R)-N-(5-(1-cyclopropyl-1H-pyrazol-4-yl)-2-methoxy-4-(4-methylpiperazin-1-yl)phenyl)-6-(3-(2,3-difluorophenyl)isoxazolidin-2-yl)pyrimidin-4-amine]
– | < 0.1 µM | COc1cc(N2CCN(C)CC2)c(-c2cnn(C)c2)cc1Nc1cc(N2OCC[C@@H]2c2cccc(F)c2F)ncn1 [Example 98, (R)-6-(3-(2,3-difluorophenyl)isoxazolidin-2-yl)-N-(2-methoxy-5-(1-methyl-N-pyrazol-4-yl)-4-(4-methylpiperazin-1-yl)phenyl)pyrimidin-4-amine]
– | 0.1 to 1 µM | COc1cc(N2CCC(CN(C)C(C)(C)CF)CC2)c(-c2cnn(C)c2)cc1Nc1cc(N2OCC[C@@H]2c2cccc(F)c2F)ncn1 [Example 110, (R)-6-(3-(2,3-difluorophenyl)isoxazolidin-2-yl)-N-(4-(4-(((1-fluoro-2-methylpropan-2-yl)(methyl)amino)methyl)pi-peridin-1-yl)-2-methoxy-5-(1-methyl-1H-pyrazol-4-yl)phenyl)pyrimidin-4-amine]
– | 0.1 to 1 µM | CC(C)Oc1cc(N2C[C@H](C)O[C@@H](C)C2)c(-c2cnn(C)c2)cc1Nc1cc(N2OCC[C@@H]2c2cccc(F)c2F)ncn1 [Example 105, 6-((R)-3-(2,3-difluorophenyl)isoxazolidin-2-yl)-N--(4-((2S,6S)-2,6-dimethylmorpholino)-2-isopropoxy-5-(1-methyl-1H-pyrazol-4-yl)phenyl)pyrimidin-4-amine]
– | 0.1 to 1 µM | COc1cc(N2CCN(C)CC2)c(-c2ccoc2)cc1Nc1cc(N2OCC[C@@H]2c2cccc(F)c2F)ncn1 [Example 75, (R)-6-(3-(2,3-difluorophenyl)isoxazolidin-2-yl)-N-(5-(furan-3-yl)-2-methoxy-4-(4-methylpiperazin-1-yl)phenyl)pyrimidin-4-amine]
– | 0.1 to 1 µM | COc1cc(N2C[C@H](C)O[C@@H](C)C2)c(-c2cnn(C)c2)cc1Nc1cc(N2OCC[C@@H]2c2cccc(F)c2F)ncn1 [Example 106, 6-((R)-3-(2,3-difluorophenyl)isoxazolidin-2-yl)-N-(4-((2S,6S)-2,6-dimethylmorpholino)-2-methoxy-5-(1-methyl-1H-pyrazol-4-yl)phenyl)pyrimidin-4-amine]
– | 0.1 to 1 µM | COc1cc(N2CCN(C)CC2)c(-c2ccncc2)cc1Nc1cc(N2OCC[C@@H]2c2cccc(F)c2F)ncn1 [Example 79, (R)-6-(3-(2,3-difluorophenyl)isoxazolidin-2-yl)-N-(2-methoxy-4-(4-methylpiperazin-1-yl)-5-(pyridin-4-yl)phenyl)pyrimidin-4-amine]
– | 0.1 to 1 µM | COc1cc(N2CCN(C)CC2)c(-c2ccsc2)cc1Nc1cc(N2OCC[C@@H]2c2cccc(F)c2F)ncn1 [Example 76, (R)-6-(3-(2,3-difluorophenyl)isoxazolidin-2-yl)-N-(2-methoxy-4-(4-methylpiperazin-1-yl)-5-(thiophen-3-yl)phenyl)pyrimidin-4-amine]
– | < 0.1 µM | COc1cc(N2CCC(N3CC(OC)C3)CC2)c(-c2cnn(C)c2)cc1Nc1cc(N2OCC[C@@H]2c2cccc(F)c2F)ncn1 [Example 102, (R)-6-(3-(2,3-difluorophenyl)isoxazolidin-2-yl)-N-(2-methoxy-4-(4-(3-methoxyazetidin-1-yl)piperidin-1-yl)-5-(1-methyl-1H-pyrazol-4-yl)phenyl)pyrimidin-4-amine]
– | < 0.1 µM | CN1CCN(c2c(-c3cnn(C)c3)cc(Nc3cc(N4OCC[C@@H]4c4cccc(F)c4F)ncn3)c3c2OCO3)CC1 [Example 113, (R)-6-(3-(2,3-difluorophenyl)isoxazolidin-2-yl)-N-(6-(1-methyl-1H-pyrazol-4-yl)-7-(4-methylpiperazin-1-yl)benzo[d][1,3]dioxol-4-yl)pyrimidin-4-amine]

More lines, now with the values behind:

SMILES | GI50 [1] | GI50 [2]
COc1cc(N2CCC3(CC2)CC(OC)C3)c(-c2cnn(C)c2)cc1Nc1cc(N2OCC[C@@H]2c2cccc(F)c2F)ncn1 [Example 30, (R)-6-(3-(2,3-difluorophenyl)isoxazolidin-2-yl)-N-(2-methoxy-4-(2-methoxy-7-azaspiro[3.5]nonan-7-yl)-5-(1-methyl-1H-pyrazol-4-yl)phenyl)pyrimidin-4-amine] | < 0.1 µM | < 0.1 µM
COc1cc(N2CCC3(CCOCC3)CC2)c(-c2cnn(C)c2)cc1Nc1cc(N2OCC[C@@H]2c2cccc(F)c2F)ncn1 [Example 28, (R)-6-(3-(2,3-difluorophenyl)isoxazolidin-2-yl)-N-(2-methoxy-5-(1-methyl-1H-pyrazol-4-yl)-4-(3-oxa-9-azaspiro[5.5]undecan-9-yl)phenyl)pyrimidin-4-amine] | < 0.1 µM | < 0.1 µM
COc1cc(N2CCC3(CC2)CC3(F)F)c(-c2cnn(C)c2)cc1Nc1cc(N2OCC[C@@H]2c2cccc(F)c2F)ncn1 [Example 32, (R)-N-(4-(1,1-difluoro-6-azaspiro[2.5]octan-6-yl)-2-methoxy-5-(1-methyl-1H-pyrazol-4-yl)phenyl)-6-(3-(2,3-difluorophenyl)isoxazolidin-2-yl)pyrimidin-4-amine] | 0.1 to 1 µM | 0.1 to 1 µM
COc1cc(N2CCC(N3CC[C@H](OC)C3)CC2)c(-c2cnn(C)c2)cc1Nc1cc(N2OCC[C@@H]2c2cccc(F)c2F)ncn1 [Example 70, 6-((R)-3-(2,3-difluorophenyl)isoxazolidin-2-yl)-N-(2-methoxy-4-(4-((S)-3-methoxypyrrolidin-1-yl)piperidin-1-yl)-5-(1-methyl-1H-pyrazol-4-yl)phenyl)pyrimidin-4-amine] | – | 0.1 to 1 µM
COc1cc(N2CCC(N3CC(F)(F)C3)CC2)c(-c2cnn(C)c2)cc1Nc1cc(N2OCC[C@@H]2c2cccc(F)c2F)ncn1 [Example 55, (R)-N-(4-(4-(3,3-difluoroazetidin-1-yl)piperidin-1-yl)-2-methoxy-5-(1-methyl-1H-pyrazol-4-yl)phenyl)-6-(3-(2,3-difluorophenyl)isoxazolidin-2-yl)pyrimidin-4-amine] | – | < 0.1 µM
COc1cc(N2CCC3CCN(C)C3C2)c(-c2cnn(C)c2)cc1Nc1cc(N2OCC[C@@H]2c2cccc(F)c2F)ncn1 (stereo partly drawn) [Example 62, 6-((R)-3-(2,3-difluorophenyl)isoxazolidin-2-yl)-N-(2-methoxy-5-(1-methyl-1H-pyrazol-4-yl)-4-(1-methyloctahydro-6H-pyrrolo[2,3-c]pyridin-6-yl)phenyl)pyrimidin-4-amine] | – | < 0.1 µM
COc1cc(N2CCC(N3CCOC(C(F)(F)F)C3)CC2)c(-c2cnn(C)c2)cc1Nc1cc(N2OCC[C@@H]2c2cccc(F)c2F)ncn1 (stereo partly drawn) [Example 73, 6-((R)-3-(2,3-difluorophenyl)isoxazolidin-2-yl)-N-(2-methoxy-5-(1-methyl-1H-pyrazol-4-yl)-4-(4-(2-(trifluoromethyl)morpholino)piperidin-1-yl)phenyl)pyrimidin-4-amine] | – | 0.1 to 1 µM
COc1cc(C23CCOCC2C3(F)F)c(-c2cnn(C)c2)cc1Nc1cc(N2OCC[C@@H]2c2cccc(F)c2F)ncn1 (stereo partly drawn) [Example 60, N-(4-(7,7-difluoro-3-oxabicyclo[4.1.0]heptan-6-yl)-2-methoxy-5-(1-methyl-1H-pyrazol-4-yl)phenyl)-6-((R)-3-(2,3-difluorophenyl)isoxazolidin-2-yl)pyrimidin-4-amine] | – | 0.1 to 1 µM
COc1cc(N2CCC3(CC2)CC(N(C)C)C3)c(-c2cnn(C)c2)cc1Nc1cc(N2OCC[C@@H]2c2cccc(F)c2F)ncn1 [Example 31, (R)-7-(4-((6-(3-(2,3-difluorophenyl)isoxazolidin-2-yl)pyrimidin-4-yl)amino)-5-methoxy-2-(1-methyl-1H-pyrazol-4-yl)phenyl)-N,N-dimethyl-7-azaspiro[3.5]nonan-2-amine] | – | < 0.1 µM
COc1cc(N2CCC(N3CC[C@H](F)C3)CC2)c(-c2cnn(C)c2)cc1Nc1cc(N2OCC[C@@H]2c2cccc(F)c2F)ncn1 [Example 71, 6-((R)-3-(2,3-difluorophenyl)isoxazolidin-2-yl)-N-(4-(4-((S)-3-fluoropyrrolidin-1-yl)piperidin-1-yl)-2-methoxy-5-(1-methyl-1H-pyrazol-4-yl)phenyl)pyrimidin-4-amine] | – | 0.1 to 1 µM
COc1cc(C23CCOCC2C3)c(-c2cnn(C)c2)cc1Nc1cc(N2OCC[C@@H]2c2cccc(F)c2F)ncn1 (stereo partly drawn) [Example 59, N-(4-(3-oxabicyclo[4.1.0]heptan-6-yl)-2-methoxy-5-(1-methyl-1H-pyrazol-4-yl)phenyl)-6-((R)-3-(2,3-difluorophenyl)isoxazolidin-2-yl)pyrimidin-4-amine] | – | 0.1 to 1 µM
COc1cc(N2CCC(N3CC[C@@H](OC)[C@@H](F)C3)CC2)c(-c2cnn(C)c2)cc1Nc1cc(N2OCC[C@@H]2c2cccc(F)c2F)ncn1 [Example 64, 6-((R)-3-(2,3-difluorophenyl)isoxazolidin-2-yl)-N-(4-((3,4R)-3-fluoro-4-methoxy-[1,4′-bipiperidin]-1′-yl)-2-methoxy-5-(1-methyl-1H-pyrazol-4-yl)phenyl)pyrimidin-4-amine] | – | 0.1 to 1 µM
